From patent publication US8309583B2, “Desferrioxamine conjugates, derivatives and analogues” (priority 2007, dated 2012)
Structures can show the parent of a compound that is named as a salt.

Experiments:
[1] = tested on: SK-N-MC cells; test: 59Fe uptake into SK-N-MC cells from 59Fe-loaded transferrin; format: cell-based; settings: comparison with DFOB
[2] = tested on: SK-N-MC neuroepithelioma cells; test: 59Fe efflux from 59Fe-prelabeled SK-N-MC cells; format: cell-based; settings: compound 50 μM, 3 h, 37° C.; SK-N-MC cells prelabeled 3 h with 59Fe-loaded transferrin (0.75 μM)
[3] = oral; cited from earlier work
[4] = RP-HPLC relative hydrophobicity / logP correlation; settings: C18 column, H2O/ACN 0.1% TFA gradient, free or Fe(III)-loaded ligand
[5] = standards used in RP-HPLC logP correlation; cited from earlier work

CC(=O)N(O)CCCCCNC(=O)CCC(=O)N(O)CCCCCNC(=O)CCC(=O)N(O)CCCCCNC(=O)COc1ccc(C)cc1 [4-methylphenoxyacetate-DFOB, 4-methylphenoxyacetate-desferrioxamine B]
competition with 59Fe-loaded transferrin for 59Fe, preventing accumulation of Fe within the cell [1]: more efficient | Fe efflux (59Fe released from prelabeled cells) [2]: 31.6%

CC(=O)N(O)CCCCCNC(=O)CCC(=O)N(O)CCCCCNC(=O)CCC(=O)N(O)CCCCCNC(=O)CCCC[C@@H]1SC[C@@H]2NC(=O)N[C@@H]21 [Biotin-DFOB, biotin-desferrioxamine B]
Fe efflux (59Fe released from prelabeled cells) [2]: 6.6%

CC(=O)N(O)CCCCCNC(=O)CCC(=O)N(O)CCCCCNC(=O)CCC(=O)N(O)CCCCCN [DFOB, desferrioxamine B, reference compound]
Fe efflux (59Fe released from prelabeled cells) [2]: 10.8%

CC(=O)N(O)CCCCCNC(=O)CCC(=O)N(O)CCCCCNC(=O)CCC(=O)N(O)CCCCCN [Desferal, mesylate salt of desferrioxamine B]
fraction of an orally administered dose absorbed [3]: 15%

CC(=O)N(O)CCCCCNC(=O)CCC(=O)N(O)CCCCCNC(=O)CCC(=O)N(O)CCCCCNC(=O)C12CC3CC(CC(C3)C1)C2 [adamantane-DFOB, adamantane-desferrioxamine B]
competition with 59Fe-loaded transferrin for 59Fe, preventing accumulation of Fe within the cell [1]: more efficient | relative hydrophobicity / water solubility from RP-HPLC retention [4]: least water soluble | relative hydrophobicity / water solubility from RP-HPLC retention ([4]; listed as adamantane-desferrioxamine B): significantly more hydrophobic | Fe efflux (59Fe released from prelabeled cells) [2]: 28%

CC(=O)N(O)CCCCCNC(=O)CCC(=O)N(O)CCCCCNC(=O)CCC(=O)N(O)CCCCCNC(=O)c1ccc2c(c1)OCCOCCOCCOCCO2 [benzo-15-crown-5-4-carboxylate-DFOB, benzo-15-crown-5-4-carboxylate-desferrioxamine B]
Fe efflux (59Fe released from prelabeled cells) [2]: 9.6%

Oc1cccc2ccccc12 [α-naphthol]
logP [5]: 2.7
